Results published in patent US7282348B2, “Kit for measuring cytotoxicity of a test agent” (Promega Corporation, priority 2002, dated 2007).

Test system: L929 cells
Experiment: Cytotoxicity of TNFα measured by LDH release (resazurin/diaphorase fluorescence)
Assay type: cell-based, mouse
Conditions: 20 hours incubation, in the presence of actinomycin D 1 μg/ml
Method: A reagent solution was prepared combining a lyophilized substrate mixture with the assay buffer containing resazurin, and all of the ingredients required to measure the release of LDH from dead cells. The buffer solvent used to reconstitute the lyophilized substrate mixture was designed so that when it is used to reconstitute the mixture, the resulting solution has an osmolarity that is compatible with living cells. That is, the resulting solution was isotonic with the cells. When used to reconstitute the lyophilized substrate mix, the reagent solution contained:
L929 cells were cultured in F-12/DME with 10% FBS and serially-diluted in a microtiter plate to yield duplicate wells containing approximately 0, 1562, 3125, 6250, 12,500, 25,000, and 50,000 cells per well, in 90 μl total volume. Cells were incubated at 37° C. for sufficient time to allow attachment (about 1.5 hours). […] The fluorescence of each well was then measured (excitation 560 nm, emission 590 nm).
L929 cells (2000 cells/well) were prepared using a 384-well tissue culture plate in F-12/DME medium supplemented with 10% horse serum. […] Fluorescence was then determined at 560 nm excitation and 590 nm emission.

Substance: TNFα
- concentration at or above which fluorescence remained essentially constant (all of the cells lysed): about 0.125 ng/ml
- observed fluorescence (560 nm excitation, 590 nm emission) as a measure of cell lysis (TNF concentrations from zero to about 0.125 ng/ml): rose in a TNFα dose-dependent fashion
